Results from US8901307B2, “Chemical compounds 251” (AstraZeneca AB, priority 2008, dated 2014).
Counter-ions that a name gives are not always drawn.

How the values were obtained:
human His-PIM1 [2-313] = target: T1, human His-PIM1 [2-313] (Homo sapiens, UniProt P11309); assay: PIM1 in-vitro mobility shift assay (Caliper LC3000, FL-Ahx-Bad phosphorylation); assay type: biochemical; settings: 1.5 h; percent inhibition at 0.3 uM compound; read-out: PIM1 % I at 0.3 uM
T1 construct: purified human His-PIM1 [2-313] enzyme; His (N); purchased University of Dundee, Scotland; host or cells: baculovirus system
In short: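 Compound preincubated 20 min at 25 °C with 2.4 nM PIM1, 3.6 µM FL-Ahx-Bad peptide and 240 µM ATP (1.2× mix concentrations). Reaction started with 24 mM MgCl2 mix, run 90 min at 25 °C, EDTA-stopped. Phospho/unphospho peptide separated by microfluidic mobility shift; percent inhibition from ratiometric turnover.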

human His-PIM2 [23-299] = target: T2, human His-PIM2 [23-299] (Homo sapiens, UniProt Q9P1W9); assay: PIM2 in-vitro mobility shift assay (Caliper LC3000, FL-Ahx-Bad phosphorylation); assay type: biochemical; settings: 1.5 h; percent inhibition at 0.3 uM compound; read-out: PIM2 % I at 0.3 uM
T2 construct: purified human His-PIM2 [23-299] enzyme; His (N); host or cells: E. coli
T2 sequence (Q9P1W9 23-299): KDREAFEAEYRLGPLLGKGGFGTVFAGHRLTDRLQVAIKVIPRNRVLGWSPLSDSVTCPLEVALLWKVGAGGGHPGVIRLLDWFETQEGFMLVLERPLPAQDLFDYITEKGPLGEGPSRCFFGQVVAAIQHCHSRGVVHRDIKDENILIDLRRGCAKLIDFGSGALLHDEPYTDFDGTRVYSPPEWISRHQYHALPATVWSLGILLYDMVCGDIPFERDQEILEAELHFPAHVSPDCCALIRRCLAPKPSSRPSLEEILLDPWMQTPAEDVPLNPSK

T1 sequence (P11309 2-313): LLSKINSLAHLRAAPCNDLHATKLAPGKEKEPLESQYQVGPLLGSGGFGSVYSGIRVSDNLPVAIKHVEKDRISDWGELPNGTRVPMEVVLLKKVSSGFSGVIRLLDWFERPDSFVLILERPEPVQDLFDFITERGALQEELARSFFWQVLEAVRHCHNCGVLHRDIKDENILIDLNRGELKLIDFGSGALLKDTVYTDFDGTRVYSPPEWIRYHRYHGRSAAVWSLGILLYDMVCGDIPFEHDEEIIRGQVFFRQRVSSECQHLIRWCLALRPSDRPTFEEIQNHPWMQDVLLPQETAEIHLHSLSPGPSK

Row | inhibition at 0.3 µM (human His-PIM1 [2-313]) [%] | inhibition at 0.3 µM (human His-PIM2 [23-299]) [%] | Compound
1 | 16.3 | < 5 | O=C1NC(=O)/C(=C/c2cc(C(F)(F)F)cc(Cl)c2N2CCN(Cc3ccc4c(c3)OCO4)CC2)S1 [Example 8]
2 | > 95 | 69.9 | CN(C)[C@H]1CCN(c2c(Cl)cc(C(F)(F)F)cc2/C=C2\SC(=O)NC2=O)C1 [Example 14]
3 | 56.2 | 20.1 | COc1cc(/C=C2\SC(=O)NC2=O)c(N2CC[C@@H](NC(=O)CCCCN)C2)cc1OC [Example 119, (R,Z)-5-amino-N-(1-(2-((2,4-dioxothiazolidin-5-ylidene)methyl)-4,5-dimethoxyphenyl)pyrrolidin-3-yl)pentanamide hydrochloride]
4 | 19 | 14 | N[C@H]1CCN(c2ccc(C(=O)O)cc2/C=C2\SC(=O)NC2=O)C1 [Example 122AH, (S,Z)-4-(3-aminopyrrolidin-1-yl)-3-((2,4-dioxothiazolidin-5-ylidene)methyl)benzoic acid]
5 | 93.7 | 45.4 | CC(C)N1CCN(c2ccccc2/C=C2\SC(=O)NC2=O)CC1 [Example 50, (5Z)-5-[2-(4-isopropylpiperazin-1-yl)benzylidene]-1,3-thiazolidine-2,4-dione]
6 | 71.4 | 30 | O=C1NC(=O)/C(=C/c2ccc3[nH]ccc3c2)S1 [Example 78, (5Z)-5-(1H-indol-5-ylmethylene)-1,3-thiazolidine-2,4-dione]
7 | 68.9 | 86.7 | N[C@@H]1CCCN(c2ccc(C(=O)O)cc2/C=C2\SC(=O)NC2=O)C1 [Example 122AG, (R,Z)-4-(3-aminopiperidin-1-yl)-3-((2,4-dioxothiazolidin-5-ylidene)methyl)benzoic acid hydrochloride]
8 | 89.4 | 17.9 | CC(C)N1CCN(c2c(Cl)cc(C(F)(F)F)cc2/C=C2\SC(=O)NC2=O)CC1 [Example 11]
9 | 16 | 7.1 | CC(C)(C)OC(=O)N1CCN(c2ccccc2/C=C2\SC(=O)NC2=O)CC1 [Example 58, (Z)-tert-butyl 4-(2-((2,4-dioxothiazolidin-5-ylidene)methyl)phenyl)piperazine-1-carboxylate]
10 | > 95 | 67.1 | N[C@H]1CCN(c2ccccc2/C=C2\SC(=O)NC2=O)C1 [Example 122X, (S,Z)-5-(2-(3-aminopyrrolidin-1-yl)benzylidene)thiazolidine-2,4-dione hydrochloride]
11 | > 95 | > 95 | CC1CCN(c2c(Cl)cccc2/C=C2\SC(=O)NC2=O)CC1N (stereo not drawn) [Example 122V, (Z)-5-(2-(3-amino-4-mnethylpiperidin-1-yl)-3-chlorobenzylidene)thiazolidine-2,4-dione hydrochloride]
12 | 80.2 | < 5 | CC(C)CN1CCN(c2c(Cl)cc(C(F)(F)F)cc2/C=C2\SC(=O)NC2=O)CC1 [Example 12]
